# Data from patent publication US7402575B2, “Methods of treating inflammation” (priority 2003, dated 2008).
# Entries after “also recorded” stand apart in the source; their conditions may differ.
# Legend:
# Type in all cases: cell-based, dog
# lysozyme c (Lzm-S) [1] = target: T1, lysozyme c (Lzm-S) (Canis lupus familiaris, UniProt P81709); test: Inhibition of Lzm-S's myocardial depressant activity (isometric tension) in right ventricular trabecular preparation; details: for Attenuation of the reduction in isometric tension, inhibitor added after Lzm-S: Lzm-S 10^−7M added before the inhibitor; for Isometric tension following pre-treatment with sugar: Lzm-S 10^−7M, sugar 10^−3M added before Lzm-S; for Inhibition of Lzm-S's depressant effect on isometric tension: inhibitor 10^−3M added before Lzm-S, paced 0.5 Hz
# T1 construct: Lzm-S was purified in a manner described by Grobler et al (14); from tissue
# T1 sequence (P81709 1-130): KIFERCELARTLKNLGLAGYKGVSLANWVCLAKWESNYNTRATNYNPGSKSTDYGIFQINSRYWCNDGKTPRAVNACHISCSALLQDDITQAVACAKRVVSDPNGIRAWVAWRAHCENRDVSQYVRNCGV
# Procedure: In subsequent experiments, the objective was to determine whether pretreatment of Lzm-S with the proteolytic enzyme proteinase-K reduced the extent to which myocardial depression developed in the in vitro preparation (7). Proteinase-K (attached to beaded agarose; Sigma Chemical, St Louis, Mo.) was added to the pure Lzm-S preparation. The effects of proteinase-K treated and nontreated Lzm-S on isometric tension were compared between the samples. Since proteinase-K is a non-specific proteolytic enzyme, a specific competitive inhibitor of lysozyme, TAC (chitotriose) was subsequently examined to determine whether it prevented the depression in isometric tension observed in the in vitro preparation (16,17).
# In one set of experiments, it was determined whether TAC prevented the reduction in tension observed with Lzm-S. A dose of 10^−3M TAC (based on preliminary experiments) was added to the organ bath before the addition of Lzm-S. Lzm-S was then added to bring the final concentrations to 10^−10M, 10^−9M, 10^−8M, and 10^−7M in sequential steps. In a related set of experiments, the effect of TAC was studied under a similar protocol in which the ventricular trabecular preparation was paced at 1 Hz instead of 0.5 Hz. The objective was to determine whether the higher frequency altered the inhibitory response of TAC. In a third set of experiments, the sequence of adding TAC and Lzm-S was reversed. Lzm-S (10^−7M) was initially added to the preparation, after which TAC at bath concentrations of 10^−6M, 10^−5M, 10^−4M, 10^−3M were sequentially added. The objective was to determine whether TAC could attenuate the effect of Lzm-S on reducing the isometric response after an initial depression in isometric tension had already been attained.
# The right ventricular (RV) preparation used in this study has also been described (49,6). Briefly, mongrel dogs (3 to 10 kg) were anesthetized with pentobarbital. The hearts were removed, flushed with 50 ml of Krebs-Henseleit solution (KH), and placed in ice-cold KH bubbled with a mixture of 95% O2 and 5% CO2. Three to four thin trabeculae (<1 mm diameter) were obtained from the right ventricle and were tied at each end with 6-O silk thread. Each thin muscle was suspended in a vertical constant temperature bath (5 ml) that contained KH (in mM: NaCl, 118; KCl, 4.7; CaCl2 2.5; MgSO4, 1.2; KH2PO4, 1.4; NaHCO3, 25; and dextrose, 11). The muscle was stimulated electrically via punctate platinum bipolar electrodes with rectangular pulses (1 ms duration) at an intensity of 50% above threshold delivered at intervals of 2,000 ms. The trabeculae were stretched to optimal length.
# Inhibitory activities of N-acetylglucosamine (NAG), N,N′ diacetylglucosamine (NAG-NAG: N,N′ diacetylchitobiose), and N,N′,N″,N′″ tetraacetylglucosamine (NAG-NAG-NAG-NAG: N,N′,N″,N′″-tetraacetylchitotetraose) were examined (Sigma Corp Canada, Oakville Ontario). These are structurally similar to TAC, but have a different number of NAG units (17). Two somewhat related sugars were also examined to see if there was potential for blocking the activity of lysozyme. These included D-cellotriose and N-aceytllactosamine. D-cellotriose includes three glucose residues linked by beta (1-4) glycosidic linkages, while N acetyllactosamine includes N-acetylglucosamine and galactose residues linked by beta (1-4) glycosidic linkages (12).
# After baseline tension was determined, either the sugar or placebo was placed into respective organ baths. The concentration of the sugar used was 10^−3M based on the inventors' previous experiments with TAC 49), while the concentrations of lysozyme were 10^−9, 10^−8, and 10^−7M, respectively. Measurements were obtained at 5 minute intervals. The changes in isometric tension measured from baseline were compared between the treated and placebo baths. […]
# lysozyme c (Lzm-S) [2] = target: T1, lysozyme c (Lzm-S); test: as above; details: Lzm-S 10^−7M first, then inhibitor 10^−3M at 15 min intervals (Example 4)
# [3] = system: right ventricular trabecular preparation; test: Effect of the substance itself on isometric tension in right ventricular trabecular preparation
# Procedure: Aliquots of the 10-30 KD plasma fraction (0.05 to 1 ml) were then added to a right ventricular (RV) trabecular preparation to test for the presence of FCS activity. The RV preparation has previously been described (6,7). Briefly, mongrel dogs (3 to 10 kg) were anesthetized with pentobarbital, and their hearts were removed. Three to four thin trabeculae (<1 mm diameter) were obtained from the right ventricle and were suspended in a vertical constant temperature bath (5 ml) that contained Krebs Henseleit (KH) solution. The muscle was stimulated electrically at 0.5 Hz. Aliquots of plasma fractions (from 0.05 to 1 ml) were added to respective organ baths at 5 minute intervals. The changes observed in the pre and septic plasma fractions were expressed relative to tensions found at baseline (i.e. prior to the addition of the sample). An increase in the depressant activity in the septic plasma fraction relative to that found in the presepsis sample was indicative of an increase in FCS.
# The effect of purified Lzm-S on myocardial depression was then studied in the ventricular trabecular preparation. In initial experiments, the objective was to compare Lzm-S prepared from septic and nonseptic spleens to see if there was any difference between the two preparations. Although no differences were apparent by SDS-PAGE gel, different isoforms of the enzyme could have developed in sepsis thereby increasing its potential to cause myocardial depression. Aliquots of the septic and nonseptic preparations were added (at 5 minute intervals) to respective organ baths, and the changes in isometric tension were then compared between Lzm-S obtained from spleens of septic and nonseptic animals.
# The right ventricular (RV) preparation used in this study has also been described (49,6). Briefly, mongrel dogs (3 to 10 kg) were anesthetized with pentobarbital. The hearts were removed, flushed with 50 ml of Krebs-Henseleit solution (KH), and placed in ice-cold KH bubbled with a mixture of 95% O2 and 5% CO2. […]
# After baseline tension was determined, either the lectin or placebo was placed into respective organ baths. […]
Compound,"Attenuation of the reduction in isometric tension, inhibitor added after Lzm-S (lysozyme c (Lzm-S) [1])",Isometric tension following pre-treatment with sugar (lysozyme c (Lzm-S) [1]),"Attenuation of Lzm-S's depressant activity at higher pacing rate (lysozyme c (Lzm-S) [1]; TAC 10^−3M before Lzm-S, paced 1 Hz)",Inhibition of Lzm-S's depressant effect on isometric tension (lysozyme c (Lzm-S) [1]),"Isometric tension, inhibitor added after myocardial depression had already been produced by lysozyme (lysozyme c (Lzm-S) [2])",Effect of the substance by itself on isometric tension [3],"Inhibition of Lzm-S's depressant effect on isometric tension (lysozyme c (Lzm-S) [1]; listed as N,N′ diacetylchitobiose)",Inhibition of Lzm-S's depressant effect on isometric tension (lysozyme c (Lzm-S) [1]; listed as diacetylchitobiose)
"CC(=O)N[C@H]1[C@H](O[C@H]2[C@H](O)[C@@H](NC(C)=O)C(O)O[C@@H]2CO)O[C@H](CO)[C@@H](O[C@@H]2O[C@H](CO)[C@@H](O)[C@H](O)[C@H]2NC(C)=O)[C@@H]1O (stereo partly drawn) [TAC, N,N′,N″ triacetylglucosamine]",treatment attenuated the reduction in isometric tension; also recorded: attenuated the decrease in isometric tension as compared to when no intervention was instituted,approximately 77 % of baseline,still observed at this higher heart rate,significantly less than that found in the nontreated group,55 % of baseline,no effect on isometric tension; also recorded: modest depressant effect,,
"CC(=O)N[C@H]1[C@H](O[C@H]2[C@H](O)[C@@H](NC(C)=O)C(O)O[C@@H]2CO)O[C@H](CO)[C@@H](O)[C@@H]1O (stereo partly drawn) [chitobiose, N,N′ diacetylglucosamine]",attenuated the decrease in isometric tension as compared to when no intervention was instituted,approximately 90 % of baseline,,,65 % of baseline,modest depressant effect,completely blocked lysozyme's depressant activity,inhibited the depressant effect of Lzm-S
